# Experimental data published in patent US8273398B2, “Geranylamine derivates of oxalic acid” (Symrise AG, priority 2008, dated 2012).
# Assays:
# [1] = Sensory profile in American beef extract base (Table 1, FIG. 1); type: in vivo; set-up: scale not given here
# From the text: This is also shown in Table 1 and the spider diagram in FIG. 1, in which an American beef extract as a base is compared with such a base plus the addition of 10 ppm of a compound (I) according to the invention and/or 10 ppm of a compound of formula (II) according to the invention and with such a base plus the addition of 0.05 weight % of MSG (monosodium glutamate).
# [2] = tested on: panel of trained testers; test: Taste profile of the pure substance in saline or sugar solution, tasting by a panel of trained testers; type: in vivo, human; conditions: for Umami character: own tests, tasting; for Taste profile: pure substance in saline or sugar solution
# From the text: The ethyl ester (3) of a partially hydrogenated geranyl derivate has already been described in the literature (Maslozhirovaya Promyshlennost 1983, 4, 26-27). In the context of our own tests the corresponding methyl ester (4) during tasting by a panel of trained testers was described as very neutral; the corresponding methyl amine (5) was assigned fruity notes (see Table 2 contained within the examples of the present text). In the following, selected substances manufactured according to the general instructions described above are presented. In each case the taste profiles have been determined by determining the taste impression of the respective substance as a pure substance in saline or sugar solution and therefore deviate from the taste impressions (in beef extracts) shown in Table 1 and FIG. 1. The following structures are further examples from this substance class, prepared and tasted according to AAV 1 and AAV 2—on the basis of various alcohols and amines.
# [3] = tested on: panel of trained test persons; test: Application in green tea drink, tasting panel; type: in vivo, human; conditions: green tea drink with 0.008 weight % of a 1% solution in propylene glycol
# Description: The green tea concentrate is mixed with a 1% solution of N-((E)-3,7-dimethyl-octa-2,6-dienyl)-oxalamide methyl ester (I) in propylene glycol. Then it is topped up with demineralized water and thoroughly mixed again. The product is then filtered, packaged ready for consumption and sterilized at 118° C.
# [4] = beef extract + 0.05 weight % MSG
smiles,measurement,setting,value
"COC(=O)C(=O)NC/C=C(\C)CCC=C(C)C [formula (I), N-((E)-3,7-dimethyl-octa-2,6-dienyl)-oxalic acid amide-methyl-ester]","Baked, roasted",[1]; beef extract + 10 ppm compound,3.55
same,Bitter,[1]; beef extract + 10 ppm compound,1.36
same,Meaty,[1]; beef extract + 10 ppm compound,4.55
same,Metallic,[1]; beef extract + 10 ppm compound,3.82
same,Mouth-watering,[1]; beef extract + 10 ppm compound,3.64
same,Mouthfeel,[1]; beef extract + 10 ppm compound,4.45
same,Salty,[1]; beef extract + 10 ppm compound,2.64
same,Sour,[1]; beef extract + 10 ppm compound,2.91
same,Sweet,[1]; beef extract + 10 ppm compound,1.36
same,"Tenacity, long-lasting",[1]; beef extract + 10 ppm compound,3.73
same,Umami character,[2],clear umami taste
same,Taste profile,[2],"sweet, full, prickling, umami"
same,Taste compared with the unflavored green tea base,[3],markedly preferable
"CCOC(=O)C(=O)NC/C=C(\C)CCC=C(C)C [formula (6), N-((E)-3,7-dimethyl-octa-2,6-dienyl)-oxalic acid amide-ethyl-ester]",Taste profile,[2],"musty, herbaceous and chemical"
COC(=O)C(=O)NCCC(C)CCCC(C)C (stereo not shown),Taste profile,[2],"fatty, bitter, metallic"
"CC(C)=CCC/C(C)=C\CNC(=O)C(=O)NC/C=C(/C)CCC=C(C)C [formula (2), N,N′-Bis-((Z)-3,7-dimethyl-octa-2,6-dienyl)-oxalamide]",Umami character,[2],did not demonstrate any umami character
same,Taste profile,[2],"neutral, slight burning"
COC(=O)C(=O)NCC=C(C)C,Taste profile,[2],"taste of its own, sol- vent"
CNC(=O)C(=O)NCCC(C)CCC=C(C)C (stereo not shown) [formula (5)],Taste profile,[2]; listed as (5),fruity notes
same,Taste profile,[2]; listed as drawing 24,fruity
COC(=O)C(=O)NCCC(C)CCC=C(C)C (stereo not shown) [formula (4)],Taste profile,[2]; listed as (4),very neutral
same,Taste profile,[2]; listed as drawing 23,neutral
CNC(=O)C(=O)NCCC(C)CCCC(C)C (stereo not shown),Taste profile,[2],neutral
"CNC(=O)C(=O)NC/C=C(/C)CCC=C(C)C [formula (IV), N-((Z)-3,7-dimethyl-octa-2,6-dienyl)-N′-methyl-oxalamide]",Umami character,[2],do not in fact have any umami character
same,Taste profile,[2],sour
"COC(=O)C(=O)NC/C=C(/C)CCC=C(C)C [formula (III), N-((Z)-3,7-dimethyl-octa-2,6-dienyl)-oxalic acid amide-methyl-ester]",Umami character,[2],do not in fact have any umami character
same,Taste profile,[2],"musty, bitter, long-lasting"
CCNC(=O)C(=O)NC/C=C(\C)CCC=C(C)C [formula (7)],Taste profile,[2]; listed as (7),very neutral
same,Taste profile,[2]; listed as drawing 19,neutral
CNC(=O)C(=O)OC/C=C(\C)CCC=C(C)C,Taste profile,[2],"soapy, flowery, per- fumey"
"N[C@@H](CCC(=O)O)C(=O)[O-].[Na+] [MSG, monosodium glutamate, reference compound]","Baked, roasted",[1]; [4],5.00
same,Bitter,[1]; [4],1.35
same,Meaty,[1]; [4],5.47
same,Metallic,[1]; [4],3.47
same,Mouth-watering,[1]; [4],4.53
same,Mouthfeel,[1]; [4],5.41
same,Salty,[1]; [4],3.29
same,Sour,[1]; [4],2.94
same,Sweet,[1]; [4],2.41
same,"Tenacity, long-lasting",[1]; [4],5.06
"CC(C)=CCC/C(C)=C/CNC(=O)C(=O)NC/C=C(\C)CCC=C(C)C [formula (1), N,N′-Bis-((E)-3,7-dimethyl-octa-2,6-dienyl)-oxalamide]",Umami character,[2],did not demonstrate any umami character
same,Taste profile,[2],"neutral, slightly hot"
"CNC(=O)C(=O)NC/C=C(\C)CCC=C(C)C [formula (II), N-((E)-3,7-dimethyl-octa-2,6-dienyl)-N′-methyl-oxalamide]","Baked, roasted",[1]; beef extract + 10 ppm compound,4.27
same,Bitter,[1]; beef extract + 10 ppm compound,1.00
same,Meaty,[1]; beef extract + 10 ppm compound,5.09
same,Metallic,[1]; beef extract + 10 ppm compound,3.55
same,Mouth-watering,[1]; beef extract + 10 ppm compound,4.14
same,Mouthfeel,[1]; beef extract + 10 ppm compound,4.73
same,Salty,[1]; beef extract + 10 ppm compound,2.82
same,Sour,[1]; beef extract + 10 ppm compound,2.45
same,Sweet,[1]; beef extract + 10 ppm compound,2.27
same,"Tenacity, long-lasting",[1]; beef extract + 10 ppm compound,4.64
same,Umami character,[2],clear umami taste
same,Taste profile,[2],"meaty, full, metallic, umami"
CNC(=O)C(=O)NCC=C(C)C,Taste profile,[2],neutral
